pIC50, pKd: −log10 of the molar value.
Columns and labels:
[1] = test system: IL-17 production by CD4 T cells; experiment: Human Th17 Assay (IL-17 production by CD4 T cells); assay type: cell-based; conditions: IL-17 in supernatant after 3 days, Th17 differentiation conditions
Text: The human Thl7 assay tests the effect of RORyt modulatory compounds on IL-17 production by CD4 T cells under conditions which favor Th17 differentiation.
Total CD4^+ T cells were isolated from the peripheral blood mononuclear cells (PBMC) of healthy donors using a CD4^+ T cell isolation kit II, following the manufacturer's instructions (Miltenyi Biotec). Cells were resuspended in a medium of RPMI-1640 supplemented with 10% fetal bovine serum, penicillin, streptomycin, […], and β-mercaptoethanol and were added to 96-well plates at 1.5x10^5 per 100 µL per well. 50 µL of compound at titrated concentrations in DMSO were added into each well at final DMSO concentration at 0.2%. Cells were incubated for 1 hour, then 50 µL of Th17 cell differentiation medium was added to each well. The final concentrations of antibodies and cytokines (R&D Systems) in differentiation medium were: 3x10^6/mL anti-CD3/CD28 beads (prepared using human T cell activation/expansion kit, Miltenyi Biotec), 10 µg/mL anti-IL4, 10 µg/mL anti-IFNγ, 10 ng/mL IL1β, 10 ng/mL IL23, 50 ng/mL IL6, 3 ng/mL TGFβ and 20 U/mL IL2. Cells were cultured at 37 °C and 5% CO2 for 3 days. Supernatants were collected and the accumulated IL-17 in culture was measured by using MULTI-SPOT® Cytokine Plate following manufacture's instruction (Meso Scale Discovery). The plate was read using Sector Imager 6000, and IL-17 concentration was extrapolated from the standard curve. The IC50s were determined by GraphPad.

human RORγt LBD = target: T1, human RORγt LBD (Homo sapiens, UniProt P51449); experiment: RORγt (LBD) Reporter Assay (GAL4 luciferase, HEK293T cells); assay type: cell-based; conditions: for inhibition at 6 µM: HEK-293T; for inhibition at 6 µM / RORγt (LBD) Reporter Assay, % inhibition @ 6 µM: 6 µM compound; for pIC50: compounds for 24 hours
T1 construct: expressed in transfected cells; host or cells: HEK293T
T1 sequence (P51449 258-518): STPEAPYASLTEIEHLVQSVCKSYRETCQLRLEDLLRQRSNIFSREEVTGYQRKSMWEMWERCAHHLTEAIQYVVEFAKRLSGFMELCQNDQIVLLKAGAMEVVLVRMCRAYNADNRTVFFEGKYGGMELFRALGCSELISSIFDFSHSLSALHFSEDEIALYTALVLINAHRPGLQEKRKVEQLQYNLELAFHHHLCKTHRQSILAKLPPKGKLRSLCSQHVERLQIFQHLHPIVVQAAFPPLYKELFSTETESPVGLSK
Description: Compounds were assessed for RORgt functional modulation using either the RORgt ligand binding domain (LBD) reporter assay, or the RORgt full-length (FL) reporter assay.
A reporter assay was used to test functional activity of RORγt modulatory compounds on transcriptional activation driven by the RORγt LBD. Cells used in the assay were co-transfected with two constructs. The first construct, pBIND-RORγt LBD, contained the wild type human RORγt LBD fused to the DNA binding domain of the GAL4 protein. The second construct, pGL4.31 (Promega Cat no. C935A), contained multiple GAL4 responsive DNA elements upstream of firefly luciferase. […] The mutant construct was called pBIND-RORγt-AF2.
The pBIND vector contains the GAL4 DNA Binding Domain (GAL4 DBD) and the renilla luciferase gene under control of the SV40 promoter. Renilla luciferase expression serves as a control for transfection efficiency and cell viability.
The reporter assay was performed by transiently transfecting HEK293T cells with 5 µg of pBIND-RORγt LBD or pBIND-RORγt LBD-AF2 and 5 µg pGL4.31 (Promega Cat no. C935A) using Fugene 6 (Invitrogen Cat no. E2691) at a 1:6 ratio of DNA: Fugene 6 in a T-75 flask in which cells were at least 80% confluent. Twenty four hours after bulk transfection, cells were plated into 96-well plates at 50,000 cells/well in phenol-red free DMEM containing 5% Lipid Reduced FCS and Pen/Strep. Six hours after plating, cells were treated with compounds for 24 hours. Media was removed and cells were lysed with 50 µL 1x Glo Lysis Buffer (Promega). Dual Glo Luciferase Reagent (50 µL/well) was then added and firefly luciferase luminescence was read on an Envision after a ten minute incubation. Finally, Stop and Glo reagent (50 µL/well) was added and renilla luciferase luminescence was read on an Envision after a ten minute incubation. To calculate the effect of compounds on RORγt activity, the ratio of firefly to renilla luciferase was determined and plotted against compound concentration. Agonist compounds increase RORγt-driven luciferase expression, and antagonist or inverse agonist compounds decrease luciferase expression.

[2] = target: T2, human RORγt ligand binding domain (RORγt LBD) (Homo sapiens, UniProt P51449); experiment: ThermoFluor® Assay (RORγt thermal shift binding); conditions: 0.065 mg/mL RORγt, 60 µM 1,8-ANS, pH 7.0; estimated from concentration response curves
T2 construct: His-tag (N); TurboTEV protease cleavage site (ENLYFQG) (N); made in house; host or cells: E. coli (pHIS1, modified pET vector)
T2 sequence (P51449 258-518): T1 sequence (P51449 258-518)
Description: This approach is applicable to a wide variety of systems, and rigorous in theoretical interpretation through quantitation of equilibrium binding constants (KD).
The shift in the melting point described as a ΔTm is proportional to the concentration and affinity of the ligand. The compound potency may be compared as a rank order of either ATm values at a single compound concentration or in terms of KD values, estimated from concentration response curves.
ThermoFluor® experiments were carried out using instruments owned by Janssen Research and Discovery, L.L.C. through its acquisition of 3-Dimensional Pharmaceuticals, Inc. 1,8-ANS (Invitrogen) was used as a fluorescent dye. Protein and compound solutions are dispensed into black 384-well polypropylene PCR microplates (Abgene) and overlayed with silicone oil (1 µL, Fluka, type DC 200) to prevent evaporation.
Bar-coded assay plates are robotically loaded onto a thermostatically controlled PCR-type thermal block and then heated at a typical ramp-rate of 1 °C/minute for all experiments. Fluorescence was measured by continuous illumination with UV light (Hamamatsu LC6) supplied via fiber optic and filtered through a band-pass filter (380-400 nm; >6 OD cutoff). Fluorescence emission of the entire 384-well plate was detected by measuring light intensity using a CCD camera (Sensys, Roper Scientific) filtered to detect 500 ± 25 nm, resulting in simultaneous and independent readings of all 384 wells. Images were collected at each temperature, and the sum of the pixel intensity in a given area of the assay plate was recorded versus temperature. Reference wells contained RORyt without compounds, and the assay conditions were as follows: • 0.065 mg/mL RORγt • 60 µM 1,8-ANS • 100 mM Hepes, pH 7.0 • 10 mM NaCl • 2.5 mM GSH • 0.002% Tween-20
Project compounds were arranged in a pre-dosed mother plate (Greiner Bio-one) wherein compounds are serially diluted in 100% DMSO by 1:2 from a high concentration of 10 mM over 12 columns within a series (column 12 is a reference well containing DMSO, no compound). The compounds were robotically dispensed directly into assay plates (1x = 46 nL) using a Hummingbird capillary liquid handling instrument (Digilab). Following compound dispense, protein and dye in buffer was added to achieve the final assay volume of 3 µL, followed by 1 µL of silicone oil.

| Compound | pIC50 [1] | pIC50 ([1]; Homo sapiens, CD4+ T, 72 h) | inhibition at 6 µM (human RORγt LBD) [%] | pIC50 (human RORγt LBD) | pKd [2] | RORγt (LBD) Reporter Assay, % inhibition @ 6 µM (human RORγt LBD) [%] |
| --- | --- | --- | --- | --- | --- | --- |
| COc1nc2ccc(C(O)c3cnnn3C)cc2c(Cl)c1Cc1ccc(-n2cccn2)cc1 (single isomer, unassigned) [Example 5b, (3-(4-(1H-Pyrazol-1-yl)benzyl)-4-chloro-2-methoxyquinolin-6-yl)(1-methyl-1H-1,2,3-triazol-5-yl)methanol] | 5.82 | – | – | – | – | – |
| COc1nc2ccc(C(O)c3cnnn3C)cc2c(Cl)c1Cc1ccc(-n2cccn2)cc1 (single isomer, unassigned) [Example 5c, (3-(4-(1H-Pyrazol-1-yl)benzyl)-4-chloro-2-methoxyquinolin-6-yl)(1-methyl-1H-1,2,3-triazol-5-yl)methanol] | 6.21 | – | – | – | – | – |
| COc1nc2ccc(C(O)c3ccc(C)nc3C)cc2c(Cl)c1Cc1ccc(C(F)(F)F)cc1 (single isomer, unassigned) [Example 14b, (4-Chloro-2-methoxy-3-(4-(trifluoromethyl)benzyl)quinolin-6-yl)(2,6-dimethylpyridin-3-yl)methanol] | – | 6.77 | 97 | 6.92 | 6.89 | – |
| COc1nc2ccc(C(O)c3ccc(C)nc3C)cc2c(Cl)c1Cc1ccc(C(F)(F)F)cc1 (single isomer, unassigned) [Example 14c, (4-Chloro-2-methoxy-3-(4-(trifluoromethyl)benzyl)quinolin-6-yl)(2,6-dimethylpyridin-3-yl)methanol] | 7.00 | – | – | 6.66 | 7.00 | 98 |
| COc1nc2ccc(C(O)c3cnnn3C)cc2c(Cl)c1Cc1ccc(C(F)(F)F)cc1 (single isomer, unassigned) [Example 17b, (4-Chloro-2-methoxy-3-(4-(trifluoromethyl)benzyl)quinolin-6-yl)(1-methyl-1H-1,2,3-triazol-5-yl)methanol] | 6.36 | – | 96 | 6.62 | 7.09 | – |
| COc1nc2ccc(C(O)c3cnnn3C)cc2c(Cl)c1Cc1ccc(C(F)(F)F)cc1 (single isomer, unassigned) [Example 17c, (4-Chloro-2-methoxy-3-(4-(trifluoromethyl)benzyl)quinolin-6-yl)(1-methyl-1H-1,2,3-triazol-5-yl)methanol] | 6.85 | – | – | 6.68 | 6.89 | 97 |
| COc1nc2ccc(C(O)c3cncn3C)cc2c(Cl)c1Cc1ccc(C(F)(F)F)cc1 (single isomer, unassigned) [Example 18c, (4-Chloro-2-methoxy-3-(4-(trifluoromethyl)benzyl)quinolin-6-yl)(1-methyl-1H-imidazol-5-yl)methanol] | – | 6.19 | – | 6.49 | 6.59 | 96 |
| Cc1ncc(C(O)c2ccc3nc(N4CCC4)c(Cc4ccc(-n5cccn5)cc4)c(Cl)c3c2)n1C (single isomer, unassigned) [Example 21c, {2-Azetidin-1-yl-4-chloro-3-[4-(1H-pyrazol-1-yl)benzyl]quinolin-6-yl}(1,2-dimethyl-1H-imidazol-5-yl)methanol] | – | 5.59 | – | 6.35 | 6.72 | 92 |
| Cc1ncc(C(O)c2ccc3nc(N4CCC4)c(Cc4ccc(C(F)(F)F)cc4)c(Cl)c3c2)n1C (single isomer, unassigned) [Example 22b, {2-Azetidin-1-yl-4-chloro-3-[4-(trifluoromethyl)benzyl]quinolin-6-yl}(1,2-dimethyl-1H-imidazol-5-yl)methanol] | 8.03 | – | 95 | 6.62 | 7.26 | – |
| Cc1ncc(C(O)c2ccc3nc(N4CCC4)c(Cc4ccc(C(F)(F)F)cc4)c(Cl)c3c2)n1C (single isomer, unassigned) [Example 22c, {2-Azetidin-1-yl-4-chloro-3-[4-(trifluoromethyl)benzyl]quinolin-6-yl}(1,2-dimethyl-1H-imidazol-5-yl)methanol] | 8.54 | – | – | ~6.40 | 7.37 | 96 |
| Cc1ccc(C(O)c2ccc3nc(N4CCC4)c(Cc4ccc(C(F)(F)F)cc4)c(Cl)c3c2)c(C)n1 (single isomer, unassigned) [Example 23b, {2-Azetidin-1-yl-4-chloro-3-[4-(trifluoromethyl)benzyl]quinolin-6-yl}(2,6-dimethylpyridin-3-yl)methanol] | – | 6.42 | 98 | 6.66 | 6.96 | – |
| Cc1ccc(C(O)c2ccc3nc(N4CCC4)c(Cc4ccc(C(F)(F)F)cc4)c(Cl)c3c2)c(C)n1 (single isomer, unassigned) [Example 23c, {2-Azetidin-1-yl-4-chloro-3-[4-(trifluoromethyl)benzyl]quinolin-6-yl}(2,6-dimethylpyridin-3-yl)methanol] | 6.32 | – | – | 6.55 | 6.70 | 99 |
